Reference: patent US6635628B2, “Methods of administering camptothecin compounds for the treatment of cancer with reduced side effects” (The George Washington University, priority 1998, dated 2003)

How the values were obtained:
[1] = system: intestinal cells from whole small-intestine; test: Uptake of 14C-labeled CPT-11 and SN-38 by intestinal cells, regions combined or not distinguished (TCA, pH, bicarbonate effects)
Protocol: By adding the drugs to Hank's solution containing intestinal cells from whole small-intestine, uptake studies were performed.
Intestinal cells were isolated as previously described (28, 29). Briefly, male hamsters were anesthetized with sodium pentobarbital (Nembutol 70 mg/kg body weight). The entire intestine was removed. The intestinal lumen was washed with 37° C. Hank's solution. Sacs of the ileum (12.5 cm from cecum) and jejunum (remaining small intestine) were rinsed, as well as the intestinal sacs of the anal site of small intestine (12.5 cm from cecum) and oral site (the other small intestine). The sacs were rinsed with oxygenated buffer solution containing sodium citrate (96 mM NaCl, 1.5 mM KCl, 5.6 mM KH2PO4, 27 mM sodium citrate, pH 7.3), and incubated for 10 min in the same buffer at 37° C. The sacs were then emptied, filled with oxygenated buffer solution containing EDTA (140 mM NaCl, 16 mM Na2HPO4, 2 mM EDTA, 0.5 mM dithiothreitol, pH 7.3), incubated for 10 min at 37° C. Then each sac was placed onto a petri dish and gently vortexed for 1 min. The buffer containing intestinal cells was recovered in 50 mL of Hanks' solution, washed twice and adjusted at 10^6 cells/ml in Hanks' medium (cellular stock solution containing 0.5% bovine serum albumin, pH 7.4).
The cellular suspension of 0.95 ml was incubated for 15 min in a 37° C. water bath with stirring. Uptake was started by the addition of 0.05 ml PBS (at pH 3 or 9) containing labeled SN-38 or CPT-11 at 37° C. At various time intervals, 100 μL, sample aliquots were diluted into 3 mL of Hank's medium at 4° C. to stop the uptake. The stop solution containing the cells was filtered through a glass microfiber filter (Glass Fiber Filter Circles G4, Fisherbrand, Pa.) under vacuum (20 psi). The cells were washed once with 5 mL of 0.5% bovine serum albumin-containing Hanks' medium (4° C.) and once with 20 mL of Hanks' solution (4° C.). The filters were placed in a vial containing 4 mL of scintillation liquid (Ultra Gold, Packard, Conn.) and the radioactivity was counted in a β scintillation counter (LS3801, Beckman, Md.).
The effect of the metabolic inhibitor, 2,4 dinitrophenol (1 mM), was studied by adding this agent to the cells 3 min prior to either ^14C-CPT-11 or ^14C-SN-38 (2 μM). The effect of 20 mM of taurocholic acid (TCA) on the uptake of both CPT-11 and SN-38 was investigated following overnight incubation of ^14C-CPT-11 (20 μM) and ^14C-SN-38 (2 μM) in Hank's solution, at pH 7.4 and in the presence and absence of TCA. The effect of 200 μM of DNP-SG or SN-38-Glu was also studied by adding these agents to the cell preparation 7 min prior to either ^14C-CPT-11 (20 μM) and ^14C-SN-38 (2 μM).
The effect of physiologic pH on the initial intestinal uptake rate of CPT-11 and SN-38 was investigated following overnight incubation of ^14C-CPT-11 (20 μM) and ^14C-SN-38 (2 μM) in phosphate buffered saline at pH 6.2, 6.8, 7.4 and 8, respectively.
The initial rate of uptake of CPT-11 or SN-38 was derived from the linear regression analysis of the respective regression line obtained from the plot of the uptake as a function of time. The initial rates of uptake were plotted against the corresponding concentration. The data were fitted by least-squares nonlinear regression analysis (SigmaStat, Jandel Scientific, CA), using the equation V=(Vmax·S)/(Km+S)+Kd·S where V represents the initial rate of uptake. Vmax is the maximum rate of uptake, Km is the apparent Michaelis constant, Kd is the rate of diffusion and S is the concentration of CPT-11 or SN-38.

topoisomerase I = molecular target: T1, topoisomerase I (Homo sapiens, UniProt P11387); settings: cited from earlier work
T1 sequence (P11387 1-765): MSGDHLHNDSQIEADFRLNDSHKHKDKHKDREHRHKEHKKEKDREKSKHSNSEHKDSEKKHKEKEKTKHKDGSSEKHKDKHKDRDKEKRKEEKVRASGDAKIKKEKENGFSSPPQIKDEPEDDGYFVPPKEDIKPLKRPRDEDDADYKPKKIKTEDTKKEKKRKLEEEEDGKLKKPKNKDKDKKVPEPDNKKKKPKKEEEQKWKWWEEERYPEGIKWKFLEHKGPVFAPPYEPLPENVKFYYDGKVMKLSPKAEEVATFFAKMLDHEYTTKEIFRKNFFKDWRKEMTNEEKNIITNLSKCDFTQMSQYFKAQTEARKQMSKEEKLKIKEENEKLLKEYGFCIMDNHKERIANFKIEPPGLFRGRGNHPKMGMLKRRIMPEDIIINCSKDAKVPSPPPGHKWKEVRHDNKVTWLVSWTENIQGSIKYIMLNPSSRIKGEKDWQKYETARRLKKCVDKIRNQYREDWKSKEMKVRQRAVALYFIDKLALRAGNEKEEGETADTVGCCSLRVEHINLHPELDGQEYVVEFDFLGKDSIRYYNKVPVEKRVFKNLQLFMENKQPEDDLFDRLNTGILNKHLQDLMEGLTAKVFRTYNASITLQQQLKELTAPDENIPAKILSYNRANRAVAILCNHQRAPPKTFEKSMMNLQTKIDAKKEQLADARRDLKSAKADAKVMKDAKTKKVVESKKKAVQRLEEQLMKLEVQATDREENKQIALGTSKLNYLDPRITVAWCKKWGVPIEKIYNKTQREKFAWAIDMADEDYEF

[2] = assay type: physicochemical; settings: 1,000-molecular weight cut-off membrane
Text: Monomers were separated from micellar aggregates by ultrafiltration through a 1000-molecular weight cut-off membrane (YM1) as described in Materials and Methods. Values are the monomeric forms of the indicated metabolites, expressed as a percentage (%) of the concentration of the initial solution before ultrafiltration. Comparison between TCA and control was estimated by Mann-Whitney test. […] Abbreviations used: CPT lactone (CPT lact.); CPT carboxylate (CPT carb.); SN-38 lactone (SN lact.); and SN-38 carboxylate (SN carb.).

[3] = bile of two men treated by cisplatin who received CPT-11 intravenously; cited from earlier work
[4] = cited from earlier work
HT29 cells [5] = test: Initial uptake rate of [14C]SN-38 by HT29 cells as a function of pH; assay type: in vitro ADME
Protocol: The uptake study was initiated by adding the compounds to Hanks' solution containing HT29 cells. The comparative initial rate of uptake as function of pH was analyzed by Kruskal-Wallis test (p<0.001) and Dunn's method (*p<0.05).
Uptake of ^14C-labeled CPT-11 and SN-38 was measured by rapid vacuum filtration assay (28, 29).

HT29 cells [6] = test: Cytotoxicity assay (MTT, mitochondrial dehydrogenase activity) in HT29 cells; assay type: cell-based; settings: 0.4 μM SN-38; 24 h exposure, 24 h drug-free; pH 6.2, 6.8, 7.4, 8.0
Protocol: Rapid colorimetric assay for mitochondrial dehydrogenase activity was modified and used for the estimation of cytotoxicity of SN-38 (Mosmann, 1983). […] After 24 h-exposure, the cells were washed twice, and subjected to a drug-free incubation for 24 h. Then, the cells were incubated with 0.5 mg/ml 3-(4,5-dimethylthiazol-2-yl)-2,5-diphenyl-tetrazolium bromide (MTT) for 4 h, and the blue formazan crystals were solubilized by addition of 10% n-dodecylsulfate sodium salt (SDS) in 0.1N HCl and overnight incubation. The formation of the blue formazan compound is spectrophotometrically determined at 560 nm (Ultraspec 4050, LKB, Bromma, Sweden).

[7] = rat; 24 h after IV injection of 14C-SN-38; cited from earlier work
Solubility in water = assay type: physicochemical

Compound: CCc1c2c(nc3ccc(O)cc13)-c1cc([C@@](O)(CC)C(=O)O)c(CO)c(=O)n1C2 [SN-38 carboxylate]
- transport mechanism in intestinal cells [1]: actively absorbed
- saturability of the uptake (predominant component) ([1]; jejunal and ileal cells, SN-38 concentrations lower than 2 μM): mostly non-saturable
- topoisomerase I-inhibitory activity (topoisomerase I): only minor
- effect of TCA on % monomer concentration / association to TCA micelles [2]: did not significantly associate to TCA micelles

Compound: CCc1c2c(nc3ccc(O)cc13)-c1cc3c(c(=O)n1C2)COC(=O)[C@]3(O)CC [SN-38, 7-ethyl-10-hydroxy-camptothecin]
- share of the biliary content [3]: 0.9-3.3%
- initial uptake rate at acidic pH (pH 6.2 and 6.8) versus neutral or alkaline pH (pH 7.4 and 8) [1]: several times greater
- initial uptake rate in the presence of 20 mM TCA ([1]; cells from jejunum and ileum combined, 14C-CPT-11 20 μM, 14C-SN-38 2 μM, pH 7.4, mean±SD, n=5): 69.3±12.7 % of control without TCA
- decrease of the uptake rate at a pH greater than 6.8 ([1]; pH 6.2): around 65%
- uptake when HEPES of the Hank's buffer was replaced by sodium bicarbonate ([1]; pH adjusted to greater than 7): decreased
- share in lactone form at pH 7.4 [4]: 13%
- initial rate of uptake in HT-29 cells compared with isolated hamster intestinal cells (HT29 cells [5]): lower in HT-29 cells than in isolated hamster intestinal cells
- uptake rate in HT29 cells as a function of pH (HT29 cells [5]; 2 μM [14C]SN-38, pH 6.2, 6.8, 7.4, 8.0): significantly greater at pH 6.2 and 6.8, than at pH 7.4 and 8.0
- cytotoxicity for HT29 cells as a function of pH (HT29 cells [6]): significantly higher at pH 6.2 and 6.8 than at pH 7.4 and 8.0
- distribution of radioactivity [7]: found exclusively in the gastrointestinal tract
- solubility in water (Solubility in water): poorly soluble in water
